We go through one substance from patent US7129352B2, “Crystalline salts of 7-′4-(4-fluorophenyl) -6-isopropyl-2-′methyl (methylsulfonyl) amino!pyrimidin-5-yl!- (3R, 5S) -3, 5-dihydroxyhept-6-enoic acid” (AstraZeneca AB, priority 2000, dated 2006).

The nature of data set [1]: hygroscopicity of the crystalline salt. In kind it is physicochemical.
Data set [2] in a line: solubility profile of the crystalline salt. In kind it is physicochemical.

In the case of “tris(hydroxymethyl)methylammonium (E)-7-[4-(4-fluorophenyl)-6-isopropyl-2-[methyl(methylsulfonyl)amino]pyrimidin-5-yl]-(3R,5S)-3,5-dihydroxyhept-6-enoate [Example 2]”, the hygroscopicity entry in data set [1] was “non-hygroscopic”. In addition, the solubility profile result in data set [2] is “advantageous solubility profile”.
